For five molecules, IC50 and viability, T/C results are on record in PubChem BioAssay AID2060509 (Molecular Pharmacology Branch, DTP, NCI, 2025).

Where “and” joins values, the source holds several entries; their conditions need not be identical. Equal entries are not always repeated.

The assay relates to 485176-168-R4-J1-PDC spheroids with HUVEC/MSC, viability. As to the kind of experiment: Anticancer human tumor 485176-168-R4-J1-PDC patient-derived pancreatic adenocarcinoma cell line growth inhibition [GQUAD]. The conditions noted are these: for viability, T/C: stronger effect = lower value. From the text: DNA G-quadruplex Stabilizer Agents in Combinations in Complex Spheroids
A high-throughput screen of multi-cell type tumor spheroids was designed to identify active combinations of DNA G-quadruplex stabilizer agents and targeted small molecules. Complex spheroids include a stromal component modeled by human endothelial cells (HUVEC) and fibroblasts modeled by human mesenchymal stem cells (MSCs). The concentration ranges selected for each drug and investigational agent were based upon clinically achievable concentrations if the clinical Cmax of the agent was known.
Compounds. The drugs and investigational agents: pidnarulex (CX-5461; NSC782164), APTO-253 (NSC789042), BRACO-19 (NSC847499), peposertib (NSC802822), ceralasertib (NSC780249), elimusertib (NSC800525), camonsertib (NSC841442), AZD-1390 (NSC803789), olaparib (NSC753686), talazoparib (NSC767125), ART-558 (NSC835418), sotorasib (NSC818433), MRTX-1133 (NSC836407), SN-38 (NSC673596), topotecan (NSC609699), etoposide (NSC141540), doxorubicin (NSC123127), gemcitabine (NSC613327), 5-fluorouracil (NSC19893), paclitaxel (NSC125973), vemurafenib (NSC761431), panobinostat (NSC761190), R-306465 (JNJ-16241199; NSC773264), adavosertib (NSC754352), TP-3654 (NSC805149), carboplatin (NSC241240), KSQ-4279 (NSC840948), and staurosporine (NSC755774) were obtained from the National Cancer Institute (NCI) Developmental Therapeutics Program Chemical Repository (34). The FDA-approved anticancer drug set is available from the NCI Developmental Therapeutics Program. […] The stock solutions were prepared in dimethyl sulfoxide (DMSO, Sigma-Aldrich, St. Louis, MO, cat. D2650) at 800-fold the tested concentration and stored at -70 degrees C prior to their use. All drugs and investigational agents were tested over a range starting from a high concentration at or near the clinical Cmax and decreasing in half-log increments. If the clinical Cmax for an agent had not been determined, the highest concentration tested was 10 microM.
2.3 Cell Culture. All cells were maintained in an incubator at 37 degrees C and 5% CO2 with 95% humidity. The PDC lines were cultured according to standard operating procedures established by the NCI PDMR. All PDCs were thawed and cultured in Matrigel-coated flasks prepared with a working solution of 1X Ham's F-12 nutrient mix, without supplementation (Invitrogen, cat. 11765054), 100 U/mL penicillin-streptomycin (Invitrogen, cat. 15140122), and 2.5% Matrigel (Corning Inc., cat. 354248) for the first three passages. The 857933-349-R-J2-PDC line was cultured in 6C/Colon 1B media, which includes advanced DMEM/F-12 (Thermo Fisher Scientific, cat. 12634028), 10 mM HEPES (Thermo Fisher Scientific, cat. 15630080), 1X GlutaMAX supplement (Thermo Fisher Scientific, cat. 35050061), 0.1 mg/mL primocin (InvivoGen, cat. ant-pm-2), 10% defined fetal bovine serum, heat inactivated (HyClone Laboratories Inc., cat. SH30070.03HI), 50% L-WRN conditioned media (ATCC, cat. CRL-3276), 1.25 mM N-Acetyl-L-cysteine (Sigma-Aldrich, cat. A9165), 10 mM nicotinamide (Sigma-Aldrich, cat. N0636), 1X B-27 supplement (Thermo Fisher Scientific, cat. 17504044), 1X N-2 supplement (Thermo Fisher Scientific, cat. 17502048), 10 microM Y-27632 dihydrochloride (Tocris Bioscience, cat. 1254), and 50 ng/mL human EGF recombinant protein (Thermo Fisher Scientific, cat. PHG0311). The 485176-168-R4-J1-PDC line was cultured in Panc media, which includes all 6C/Colon 1B media components plus 100 ng/mL human FGF-10 (Thermo Fisher Scientific, cat. 100-26), 500 nM SB-431542 (Selleckchem, cat. S1067), and gastrin (Tocris, cat. 3006).
[…]

The mark [1] stands for this setting: curve of first compound, second compound 0.0316 µM.
The mark [2] stands for this setting: curve of first compound, second compound 0.1 µM.
[3] abbreviates: curve of first compound, second compound 0.316 µM.
Setting [4] is: curve of first compound, second compound 1 µM.
Setting [5] is: curve of first compound, second compound 3.16 µM.
Where [6] appears, read: curve of first compound, second compound 10 µM.
[7] abbreviates: second compound 0.0316 µM, first compound 0.0316 µM.
Setting [8] is: second compound 0.0316 µM, first compound 0.316 µM.
The mark [9] stands for this setting: second compound 0.1 µM, first compound 0.0316 µM.
Setting [10] is: second compound 0.1 µM, first compound 0.316 µM.
The mark [11] stands for this setting: second compound 0.316 µM, first compound 0.0316 µM.
Setting [12] is: second compound 0.316 µM, first compound 0.316 µM.
Setting [13] is: second compound 1 µM, first compound 0.0316 µM.
Setting [14] is: second compound 1 µM, first compound 0.316 µM.
Where [15] appears, read: second compound 3.16 µM, first compound 0.0316 µM.
The mark [16] stands for this setting: second compound 3.16 µM, first compound 0.316 µM.
Where [17] appears, read: second compound 10 µM, first compound 0.0316 µM.
[18] abbreviates: second compound 10 µM, first compound 0.316 µM.
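Further: spheroids exposed to compounds for seven days before readout.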
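Wherever viability, T/C is given: percent viability relative to DMSO vehicle control wells as 100%.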

For `Cn1ncnc1[C@H]1c2n[nH]c(=O)c3cc(F)cc(c23)N[C@@H]1c1ccc(F)cc1` + CN(C)c1ccc(Nc2c3ccc(NC(=O)CCN4CCCC4)cc3nc3cc(NC(=O)CCN4CCCC4)ccc23)cc1, the IC50 is, setting by setting: under setting [1], > 0.316 µM; under setting [2], > 0.316 µM; under setting [3], > 0.316 µM; under setting [4], > 0.316 µM; under setting [5], > 0.316 µM; under setting [6], > 0.316 µM. In addition, the viability, T/C is 92.1% (second compound 0.0316 µM, first compound 0.000999 µM); 91.2% (second compound 0.0316 µM, first compound 0.00316 µM); 101% (second compound 0.0316 µM, first compound 0.00999 µM); 98% under setting [7]; 98.9% (second compound 0.0316 µM, first compound 0.0999 µM); 92% under setting [8]. The viability, T/C reads like this: (second compound 0.1 µM, first compound 0.000999 µM) 102%; (second compound 0.1 µM, first compound 0.00316 µM) 124%; (second compound 0.1 µM, first compound 0.00999 µM) 107%; under setting [9], 93.3%; (second compound 0.1 µM, first compound 0.0999 µM) 110%; under setting [10], 90.8%. Moreover, the viability, T/C is 101% (second compound 0.316 µM, first compound 0.000999 µM); 97.5% (second compound 0.316 µM, first compound 0.00316 µM); 95.3% (second compound 0.316 µM, first compound 0.00999 µM); 104% under setting [11]; 106% (second compound 0.316 µM, first compound 0.0999 µM); 96.5% under setting [12]. In addition, the viability, T/C (second compound 1 µM, first compound 0.000999 µM) was 108%; the viability, T/C (second compound 1 µM, first compound 0.00316 µM) was 91.7%; the viability, T/C (second compound 1 µM, first compound 0.00999 µM) is 114%; the viability, T/C under setting [13] is 104%; the viability, T/C (second compound 1 µM, first compound 0.0999 µM) was 113%; the viability, T/C under setting [14] was 93.2%. Also, the viability, T/C reads like this: (second compound 3.16 µM, first compound 0.000999 µM) 107%; (second compound 3.16 µM, first compound 0.00316 µM) 80.9%; (second compound 3.16 µM, first compound 0.00999 µM) 98.6%; under setting [15], 95.7%; (second compound 3.16 µM, first compound 0.0999 µM) 89.3%; under setting [16], 86.8%. Further, the viability, T/C (second compound 10 µM, first compound 0.000999 µM) is 90.1%; the viability, T/C (second compound 10 µM, first compound 0.00316 µM) was 81.4%; the viability, T/C (second compound 10 µM, first compound 0.00999 µM) is 79.6%; the viability, T/C under setting [17] is 97.7%; the viability, T/C (second compound 10 µM, first compound 0.0999 µM) is 99.5%; the viability, T/C under setting [18] is 78.8%.
As to `COc1ncnc(C2CC2)c1-c1ncc2cnn(Cc3ccc(-c4nc(C(F)(F)F)cn4C(C)C)cc3)c2n1` + Cc1cnc(CNC(=O)c2c(=O)c3ccc(N4CCCN(C)CC4)nc3n3c2sc2ccccc23)cn1, the half-inhibitory concentration (IC50) was > 10 µM under setting [1]; > 10 µM under setting [2]; > 10 µM under setting [3]; < 0.0316 µM under setting [4]; < 0.0316 µM under setting [5]; < 0.0316 µM under setting [6]. Besides, the viability, T/C by setting is: under setting [7], 102%; (second compound 0.0316 µM, first compound 0.1 µM) 83.6%; under setting [8], 88.9%; (second compound 0.0316 µM, first compound 1 µM) 89.7%; (second compound 0.0316 µM, first compound 3.16 µM) 107%; (second compound 0.0316 µM, first compound 10 µM) 83.7%. Besides, the viability, T/C was 77.3% under setting [9]; 86.8% (second compound 0.1 µM, first compound 0.1 µM); 76.8% under setting [10]; 66.2% (second compound 0.1 µM, first compound 1 µM); 67% (second compound 0.1 µM, first compound 3.16 µM); 81% (second compound 0.1 µM, first compound 10 µM). In addition, the viability, T/C is 54.6% under setting [11]; 65.4% (second compound 0.316 µM, first compound 0.1 µM); 56.4% under setting [12]; 73.7% (second compound 0.316 µM, first compound 1 µM); 61.6% (second compound 0.316 µM, first compound 3.16 µM); 62.9% (second compound 0.316 µM, first compound 10 µM). Besides, the viability, T/C runs as follows: under setting [13], 50.4%; (second compound 1 µM, first compound 0.1 µM) 44.1%; under setting [14], 57.7%; (second compound 1 µM, first compound 1 µM) 52.5%; (second compound 1 µM, first compound 3.16 µM) 58.3%; (second compound 1 µM, first compound 10 µM) 54.9%. The viability, T/C runs as follows: under setting [15], 45.1%; (second compound 3.16 µM, first compound 0.1 µM) 47.6%; under setting [16], 47%; (second compound 3.16 µM, first compound 1 µM) 40.4%; (second compound 3.16 µM, first compound 3.16 µM) 43.8%; (second compound 3.16 µM, first compound 10 µM) 47%. For the same molecule, the viability, T/C was 36.1% under setting [17]; 47.7% (second compound 10 µM, first compound 0.1 µM); 40.3% under setting [18]; 34.4% (second compound 10 µM, first compound 1 µM); 40.5% (second compound 10 µM, first compound 3.16 µM); 39.6% (second compound 10 µM, first compound 10 µM).
In the case of `CCCS(=O)(=O)Nc1ccc(F)c(C(=O)c2c[nH]c3ncc(-c4ccc(Cl)cc4)cc23)c1F`, the viability, T/C was 84.4% and 98.5% and 96.2% (compound 0.0316 µM); 94.7% and 85.4% and 64.8% (compound 0.1 µM); 89.7% and 87.6% and 85% (compound 0.316 µM); 82% and 83.2% and 77% (compound 1 µM); 82.2% and 75.4% and 73.2% (compound 3.16 µM); 71.2% and 70.3% and 66.2% (compound 10 µM). In addition, the IC50 (curve of compound) was > 10 µM.
In the case of `Cc1cccc(N(C)C(=O)C2C(O)CCN2c2nc(C)cc(C(F)(F)F)c2C#N)c1` (stereo not given), the viability, T/C (compound 0.0316 µM) was 103% and 99% and 105%; the viability, T/C (compound 0.1 µM) was 85.8% and 79.2% and 87.1%; the viability, T/C (compound 0.316 µM) was 84.3% and 101% and 97.6%; the viability, T/C (compound 1 µM) is 85.8% and 105% and 76.4%; the viability, T/C (compound 3.16 µM) is 97.7% and 103% and 97.5%; the viability, T/C (compound 10 µM) is 95.4% and 91.5% and 89.9%. Also, under “curve of compound”, the IC50 is > 10 µM.
Take `CC1COCCN1c1cc(C2(O)CC3CCC(C2)O3)c2cnn(-c3ccn[nH]3)c2n1` (stereo not given): the viability, T/C by setting is: (compound 0.0316 µM) 68% and 73.8% and 81.9%; (compound 0.1 µM) 32.8% and 40.7% and 53.4%; (compound 0.316 µM) 11.7% and 19.7% and 16.1%; (compound 1 µM) 8.14% and 9.02% and 10.2%; (compound 3.16 µM) 8.91% and 11.7% and 10.2%; (compound 10 µM) 9.41% and 8.55% and 9.34%. The IC50 (curve of compound) was 0.057 µM and 0.0727 µM and 0.111 µM.

The term IC50 denotes the concentration that gives 50% inhibition. Usually viability, T/C stands for the result in the treated group divided by that in the control group, in per cent.
